Experimental data published in paper PMC9118553, “In Vivo Bioconcentration of 10 Anionic Surfactants in Rainbow Trout Explained by In Vitro Data on Partitioning and S9 Clearance” (Environmental Science & Technology, 2022).
Where “and” joins values, the source holds several entries; their conditions need not be identical. Equal entries are not always repeated. Where two headings read alike, the source gives them in different places.

How the values were obtained:
[1] = tested on: rainbow trout; assay: In vivo bioconcentration experiment with a mixture of anionic surfactants, flow-through aquaria, 10 °C, pH 7.8; settings: for Log BCF: determined with measured concentrations in water; for Concentration in fish: individual fish; for BCF (kinetic): kinetic BCF from measured concentrations in water
In short: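 Juvenile rainbow trout exposed to a 10-surfactant mixture for 4 days, then 7-day depuration, in flow-through aquaria at 10 °C, pH 7.8. Whole-fish homogenates and water analysed by LC-MS/MS against BEHP internal standard. kU, kT and BCF (=kU/kT) estimated by joint Bayesian model including water-concentration uncertainty.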

[2] = Baseline screening BCF (0.0125 DMLW, equilibrium partitioning, no biotransformation); settings: for Log baseline BCF: determined as 0.0125 DMLW
In short: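 Calculated rather than measured: baseline screening BCF derived as 0.0125 × DMLW (membrane-lipid/water distribution ratio), assuming equilibrium partitioning and no biotransformation. Expressed as log L kg-1 wet weight.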

[3] = from measured concentrations in water, Bayesian estimate, 95% credible interval in brackets
[4] = 95% credible interval in brackets
[5] = measured concentrations in water, simpler estimation method (Text S3), 95% confidence intervals in brackets
[6] = determined using nominal concentrations in water

Row | Structure (SMILES) | Log BCF [1] [L kg-1 ww] | Concentration in fish ([1]; elimination phase, 97 h) | Concentration in fish ([1]; elimination phase, 98 h) | Concentration in fish ([1]; elimination phase, 100 h) | Concentration in fish ([1]; elimination phase, 103 h) | Concentration in fish ([1]; elimination phase, 120 h) | Concentration in fish ([1]; elimination phase, 128 h) | Concentration in fish ([1]; elimination phase, 144 h) | Concentration in fish ([1]; elimination phase, 168 h) | Concentration in fish ([1]; elimination phase, 192 h) | Concentration in fish ([1]; elimination phase, 264 h) | Concentration in fish ([1]; exposure phase, 1 h) | Concentration in fish ([1]; exposure phase, 2 h) | Concentration in fish ([1]; exposure phase, 3 h) | Concentration in fish ([1]; exposure phase, 4 h) | Concentration in fish ([1]; exposure phase, 6 h) | Concentration in fish ([1]; exposure phase, 24 h) | Concentration in fish ([1]; exposure phase, 48 h) | Concentration in fish ([1]; exposure phase, 72 h) | Concentration in fish ([1]; exposure phase, 96 h) | also measured
1 | CCCCCCCCCCCCCCCCS(=O)(=O)O [C16SO3, hexadecylsulfonate] | 3.14 | 4206 ng g-1 ww and 4275 ng g-1 ww and 4280 ng g-1 ww | 3644 ng g-1 ww and 3202 ng g-1 ww and 3035 ng g-1 ww | 4355 ng g-1 ww and 3469 ng g-1 ww and 3603 ng g-1 ww | 3251 ng g-1 ww and 4192 ng g-1 ww and 3692 ng g-1 ww | 2630 ng g-1 ww and 4641 ng g-1 ww and 2805 ng g-1 ww | 3635 ng g-1 ww and 2712 ng g-1 ww and 2831 ng g-1 ww | 2859 ng g-1 ww and 2503 ng g-1 ww and 3401 ng g-1 ww | 2804 ng g-1 ww and 2276 ng g-1 ww and 2244 ng g-1 ww | 1669 ng g-1 ww and 1852 ng g-1 ww and 2440 ng g-1 ww | 1420 ng g-1 ww and 2150 ng g-1 ww and 967 ng g-1 ww | 440 ng g-1 ww and 319 ng g-1 ww and 614 ng g-1 ww | 300 ng g-1 ww and 304 ng g-1 ww and 147 ng g-1 ww | 347 ng g-1 ww and 392 ng g-1 ww and 451 ng g-1 ww | 510 ng g-1 ww and 1310 ng g-1 ww and 2283 ng g-1 ww | 557 ng g-1 ww and 678 ng g-1 ww and 649 ng g-1 ww | 2045 ng g-1 ww and 1698 ng g-1 ww and 1479 ng g-1 ww | 3941 ng g-1 ww and 3596 ng g-1 ww and 1879 ng g-1 ww | 1532 ng g-1 ww and 3782 ng g-1 ww and 3167 ng g-1 ww | 3775 ng g-1 ww and 5248 ng g-1 ww and 3695 ng g-1 ww | Uptake rate constant kU [1]: 6.3 L kg^–1 h^–1; Elimination rate constant kT [1, 3]: 0.0047 (0.0026–0.0062) h^–1; Uptake rate constant kU [1, 3]: 6.3 (5.3–7.4) L kg^–1 ww h^–1; diffusion coefficient (D) in the epithelial membrane of the gills ([1]; in vivo): 1.6 × 10^–8 m h^–1; BCF (kinetic) [1, 4]: 1370 (1070–2200) L kg^–1 ww; BCF [1, 5]: 1480 (14) L kg-1 ww; Elimination rate constant kT [1, 5]: 0.0073 (10) h-1; Uptake rate constant kU [1, 5]: 10.8 (10) L kg-1 ww h-1; Log difference (baseline BCF vs BCF) [2]: 1.15 L kg-1 ww; Log baseline BCF [2]: 4.29 L kg-1 ww
2 | CCCCC(CC)COC(=O)CC(C(=O)OCC(CC)CCCC)S(=O)(=O)O (centres unmarked) [DOSS, bis(2-ethylhexyl)sulfosuccinate] | 0.15 | 69 ng g-1 ww and 70 ng g-1 ww | 25 ng g-1 ww and 34 ng g-1 ww | 92 ng g-1 ww and 49 ng g-1 ww and 45 ng g-1 ww | 35 ng g-1 ww and 33 ng g-1 ww | 14.2 ng g-1 ww and 36 ng g-1 ww and 13.5 ng g-1 ww | 15.7 ng g-1 ww and 17.8 ng g-1 ww | 4.1 ng g-1 ww and 6.4 ng g-1 ww and 24 ng g-1 ww | 2.3 ng g-1 ww and 7.9 ng g-1 ww and 3.0 ng g-1 ww | 0.75 ng g-1 ww and 4.2 ng g-1 ww and 0.92 ng g-1 ww | 4.5 ng g-1 ww and 2.9 ng g-1 ww and 0.40 ng g-1 ww | 10.9 ng g-1 ww and 5.8 ng g-1 ww and 17.8 ng g-1 ww | 11.0 ng g-1 ww and 7.5 ng g-1 ww | 17.4 ng g-1 ww and 15.2 ng g-1 ww | 21 ng g-1 ww and 42 ng g-1 ww and 106 ng g-1 ww | 32 ng g-1 ww and 25 ng g-1 ww | 59 ng g-1 ww and 41 ng g-1 ww | 66 ng g-1 ww and 56 ng g-1 ww | 59 ng g-1 ww and 78 ng g-1 ww | 62 ng g-1 ww and 67 ng g-1 ww | Uptake rate constant kU [1]: 0.090 L kg^–1 h^–1; BCF [1, 6]: 3.0 L kg-1 ww; Uptake rate constant kU [1, 6]: 0.169 L/kg/h; Uptake rate constant kU [1, 3]: 0.090 (0.074–0.110) L kg^–1 ww h^–1; BCF (kinetic) [1, 4]: 1.42 (1.22–1.66) L kg^–1 ww; BCF [1, 5]: 1.37 (14) L kg-1 ww; Uptake rate constant kU [1, 5]: 0.088 (9) L kg-1 ww h-1; BCF ([1]; own values): 1.42 L kg^–1; diffusion coefficient (D) in the epithelial membrane of the gills ([1]; solved from eq 3 with kU, DMLW, gill area, fish 0.024 kg, membrane density 1 kg L^–1): 9.3 × 10^–9 m h^–1; Log difference (baseline BCF vs BCF) [2]: 2.53 L kg-1 ww; Log baseline BCF [2]: 2.68 L kg-1 ww
3 | CCCCCCCCCCCCCS(=O)(=O)O [C13SO3, tridecylsulfonate] | 0.65 | 15.7 ng g-1 ww and 14.6 ng g-1 ww and 19.2 ng g-1 ww | 14.6 ng g-1 ww and 12.4 ng g-1 ww and 14.8 ng g-1 ww | 33 ng g-1 ww and 10.3 ng g-1 ww and 12.1 ng g-1 ww | 10.0 ng g-1 ww and 23 ng g-1 ww and 11.1 ng g-1 ww | 6.4 ng g-1 ww and 4.3 ng g-1 ww and 2.9 ng g-1 ww | 2.8 ng g-1 ww and 2.3 ng g-1 ww and 4.9 ng g-1 ww | 1.63 ng g-1 ww and 1.18 ng g-1 ww and 1.59 ng g-1 ww | 0.83 ng g-1 ww and 1.89 ng g-1 ww and 0.64 ng g-1 ww | 0.40 ng g-1 ww and 0.33 ng g-1 ww and 0.60 ng g-1 ww | 0.30 ng g-1 ww and 0.13 ng g-1 ww and 0.02 ng g-1 ww | 15.3 ng g-1 ww and 2.5 ng g-1 ww and 35 ng g-1 ww | 3.2 ng g-1 ww and 3.0 ng g-1 ww and 2.3 ng g-1 ww | 4.7 ng g-1 ww and 5.8 ng g-1 ww and 4.5 ng g-1 ww | 8.1 ng g-1 ww and 54 ng g-1 ww and 202 ng g-1 ww | 10.5 ng g-1 ww and 10.3 ng g-1 ww and 8.5 ng g-1 ww | 24 ng g-1 ww and 21 ng g-1 ww and 17.0 ng g-1 ww | 19.4 ng g-1 ww and 20 ng g-1 ww and 17.1 ng g-1 ww | 30 ng g-1 ww and 16.7 ng g-1 ww and 15.0 ng g-1 ww | 22 ng g-1 ww and 19.7 ng g-1 ww and 28 ng g-1 ww | BCF [1, 6]: 3.9 L kg-1 ww; Elimination rate constant kT [1, 6]: 0.065 h⁻¹; Uptake rate constant kU [1, 6]: 0.25 L/kg/h; Elimination rate constant kT [1, 3]: 0.057 (0.052–0.062) h^–1; Uptake rate constant kU [1, 3]: 0.25 (0.22–0.29) L kg^–1 ww h^–1; diffusion coefficient (D) in the epithelial membrane of the gills ([1]; in vivo): 3.5 × 10^–8 m h^–1; BCF (kinetic) [1, 4]: 4.5 (4.1–5.0) L kg^–1 ww; BCF [1, 5]: 4.3 (12) L kg-1 ww; Elimination rate constant kT [1, 5]: 0.057 (7) h-1; Log difference (baseline BCF vs BCF) [2]: 1.90 L kg-1 ww; Log baseline BCF [2]: 2.56 L kg-1 ww
